Reference: patent publication EP0238060B1, “Cephalosporin derivatives, processes for their preparation and antibacterial agents” (Banyu Pharmaceutical Co., Ltd., priority 1986, dated 1987)
≈ marks a conversion by molar mass, not a printed value. Read-outs that look alike come from different tables or passages of the source.

What was measured:
Experiment in all cases: In vitro antibacterial activity, agar plate dilution method (MIC)
[1] = system: P.vulgaris No. 33; format: cell-based; conditions: Proteus vulgaris, read-out: Minimum Inhibitory Concentration (MIC: µg/ml)
Procedure: (§1) The in vitro antibacterial activities of the compounds of the present invention against various microorganisms, were measured by the following agar plate dilution method. One platinum loopfull of each test microorganism incubated overnight in Mueller Hinton broth, was inoculated to Mueller Hinton agar (inoculum size: l0⁶ CFU/ml). Such culture media containing various antibiotics in various concentrations were prepared. After incubation at 37°C for l6 hours, the minimum inhibitory concentrations (MIC: µg/ml) were measured. As comparative compounds, Cefotaxime, Ceftazidime and the compounds of Reference Examples l to 4 were employed.

[2] = system: Ps.aeruginosa IFO3445; format: cell-based; conditions: Pseudomonas aeruginosa; Ps.aeruginosa IFO3445; Mueller Hinton agar, inoculum 10⁶ CFU/ml, 37°C, 16 hours; read-out: Minimum Inhibitory Concentration (MIC: µg/ml)
Procedure: as §1

[3] = system: C.freundii GN346; format: cell-based; conditions: Citrobacter freundii, read-out: Minimum Inhibitory Concentration (MIC: µg/ml)
Procedure: as §1

[4] = system: S.marcescens No. 16-2; format: cell-based; conditions: Serratia marcescens, read-out: Minimum Inhibitory Concentration (MIC: µg/ml)
Procedure: as §1

[5] = system: E.cloacae Nek 39; format: cell-based; conditions: Enterobacter cloacae, read-out: Minimum Inhibitory Concentration (MIC: µg/ml)
Procedure: as §1

[6] = system: A.calcoaceticus No. 4; format: cell-based; conditions: Acinetobacter calcoaceticus, read-out: Minimum Inhibitory Concentration (MIC: µg/ml)
Procedure: as §1

[7] = system: M.morganii GN5407; format: cell-based; conditions: Morganella morganii, read-out: Minimum Inhibitory Concentration (MIC: µg/ml)
Procedure: as §1

[8] = system: Ps.aeruginosa AK 109; format: cell-based; conditions: Pseudomonas aeruginosa, read-out: Minimum Inhibitory Concentration (MIC: µg/ml)
Procedure: as §1

[9] = system: C.freundii GN346/16; format: cell-based; conditions: Citrobacter freundii, read-out: Minimum Inhibitory Concentration (MIC: µg/ml)
Procedure: as §1

[10] = system: K.oxytoca GN10650; format: cell-based; conditions: Klebsiella oxytoca, read-out: Minimum Inhibitory Concentration (MIC: µg/ml)
Procedure: as §1

[11] = system: S.aureus BB5703; format: cell-based; conditions: Staphylococcus aureus, read-out: Minimum Inhibitory Concentration (MIC: µg/ml)
Procedure: as §1

[12] = system: E.coli GN5482; format: cell-based; conditions: Escherichia coli, read-out: Minimum Inhibitory Concentration (MIC: µg/ml)
Procedure: as §1

[13] = system: P.vulgaris HX-19; format: cell-based; conditions: Proteus vulgaris, read-out: Minimum Inhibitory Concentration (MIC: µg/ml)
Procedure: as §1

[14] = system: S.aureus JS1; format: cell-based; conditions: Staphylococcus aureus, read-out: Minimum Inhibitory Concentration (MIC: µg/ml)
Procedure: as §1

[15] = system: M.luteus ATCC9341; format: cell-based; conditions: Micrococcus luteus, read-out: Minimum Inhibitory Concentration (MIC: µg/ml)
Procedure: as §1

[16] = system: K.pneumoniae No. 42; format: cell-based; conditions: Klebsiella pneumoniae, NO.42, 16 h, read-out: Minimum Inhibitory Concentration (MIC: µg/ml)
Procedure: as §1

[17] = system: S.epidermidis IAM12012; format: cell-based; conditions: Staphylococcus epidermidis, read-out: Minimum Inhibitory Concentration (MIC: µg/ml)
Procedure: as §1

[18] = system: S.marcescens IAM 1184; format: cell-based; conditions: Serratia marcescens, read-out: Minimum Inhibitory Concentration (MIC: µg/ml)
Procedure: as §1

[19] = system: Ps.aeruginosa AKR17; format: cell-based; conditions: Pseudomonas aeruginosa; Ps.aeruginosa AKR17; Mueller Hinton agar, inoculum 10⁶ CFU/ml, 37°C, 16 hours; read-out: Minimum Inhibitory Concentration (MIC: µg/ml)
Procedure: as §1

[20] = system: S.aureus 209P NIHJ-JC1; format: cell-based; conditions: Staphylococcus aureus, read-out: Minimum Inhibitory Concentration (MIC: µg/ml)
Procedure: as §1

[21] = system: E.coli CSH2 (RK1); format: cell-based; conditions: Escherichia coli, 16 h, read-out: Minimum Inhibitory Concentration (MIC: µg/ml)
Procedure: as §1

[22] = system: E.cloacae 963; format: cell-based; conditions: read-out: Minimum Inhibitory Concentration (MIC: µg/ml)
Procedure: as §1

[23] = system: K.pneumoniae PCI-602; format: cell-based; conditions: Klebsiella pneumoniae, read-out: Minimum Inhibitory Concentration (MIC: µg/ml)
Procedure: as §1

[24] = system: E.coli CSH(RE45); format: cell-based; conditions: Escherichia coli, 16 h, read-out: Minimum Inhibitory Concentration (MIC: µg/ml)
Procedure: as §1

[25] = system: E.coli NIHJ JC2; format: cell-based; conditions: Escherichia coli, read-out: Minimum Inhibitory Concentration (MIC: µg/ml)
Procedure: as §1

[26] = system: Ps.cepacia 23; format: cell-based, Pseudomonas cepacia; conditions: read-out: Minimum Inhibitory Concentration (MIC: µg/ml)
Procedure: as §1

[27] = system: Ps.maltophilia GN 12873; format: cell-based, Pseudomonas maltophilia; conditions: Stenotrophomonas maltophilia, read-out: Minimum Inhibitory Concentration (MIC: µg/ml)
Procedure: as §1

Compound: CC(C)(O/N=C(\C(=O)N[C@@H]1C(=O)N2C(C(=O)[O-])=C(C[n+]3ccccc3)CS[C@H]12)c1csc(N)n1)C(=O)O [Ceftazidime, reference compound]
- MIC ([1]; NO.33, 16 h): 0.05 µg/mL (≈ 0.0915 µM)
- MIC [2]: 0.39 µg/mL (≈ 0.714 µM)
- MIC ([3]; GN346, 16 h): 25 µg/mL (≈ 45.7 µM)
- MIC ([4]; NO.162, 16 h): 1.56 µg/mL (≈ 2.85 µM)
- MIC ([5]; NEK39, 16 h): 1.56 µg/mL (≈ 2.85 µM)
- MIC ([6]; NO.4, 16 h): 6.25 µg/mL (≈ 11.4 µM)
- MIC ([7]; GN5407, 16 h): 0.1 µg/mL (≈ 0.183 µM)
- MIC ([8]; AK109, 16 h): 1.56 µg/mL (≈ 2.85 µM)
- MIC ([9]; GN346, 16 h): 0.2 µg/mL (≈ 0.366 µM)
- MIC ([10]; GN10650, 16 h): 0.2 µg/mL (≈ 0.366 µM)
- MIC ([11]; BB5703, 16 h): 25 µg/mL (≈ 45.7 µM)
- MIC ([12]; GN5482, 16 h): 3.12 µg/mL (≈ 5.71 µM)
- MIC ([13]; HX19, 16 h): 0.025 µg/mL (≈ 0.0457 µM)
- MIC ([14]; JS1, 16 h): 50 µg/mL (≈ 91.5 µM)
- MIC ([15]; ATCC9341, 16 h): 1.56 µg/mL (≈ 2.85 µM)
- MIC [16]: 0.39 µg/mL (≈ 0.714 µM)
- MIC ([17]; IAM12012, 16 h): 3.12 µg/mL (≈ 5.71 µM)
- MIC ([18]; IAM1184, 16 h): 0.025 µg/mL (≈ 0.0457 µM)
- MIC [19]: > 100 µg/mL
- MIC ([20]; 16 h): 6.25 µg/mL (≈ 11.4 µM)
- MIC [21]: 0.1 µg/mL (≈ 0.183 µM)
- MIC ([22]; Enterobacter cloacae, 963, 16 h): 0.2 µg/mL (≈ 0.366 µM)
- MIC ([23]; PCI602, 16 h): 0.125 µg/mL (≈ 0.229 µM)
- MIC [24]: 0.1 µg/mL (≈ 0.183 µM)
- MIC ([25]; NIHJJC2, 16 h): 0.2 µg/mL (≈ 0.366 µM)
- MIC ([26]; Burkholderia cepacia, 23, 16 h): 1.56 µg/mL (≈ 2.85 µM)
- MIC ([27]; GN12873, 16 h): 100 µg/mL (≈ 183 µM)

Compound: CO/N=C(\C(=O)NC1C(=O)N2C(C(=O)[O-])=C(C[n+]3ccc4cc(OC(C)=O)c(OC(C)=O)cc4c3)CSC12)c1csc(N)n1 (stereo not drawn) [Ex. 8, 3-(6,7-diacetoxy-2-isoquinolino)methyl-7-[2-(2-aminothiazol-4-yl)-2-methoxyiminoacetamido]-3-cephem-4-carboxylate]
- MIC ([1]; P.vulgaris No. 33 (β-Lactamase-producing strain), Mueller Hinton agar, inoculum 10⁶ CFU/ml, 37°C, 16 hours): 0.1 µg/mL (≈ 0.156 µM)
- MIC [2]: 0.78 µg/mL (≈ 1.22 µM)
- MIC ([3]; C.freundii GN346 (β-Lactamase-producing strain), Mueller Hinton agar, inoculum 10⁶ CFU/ml, 37°C, 16 hours): 50 µg/mL (≈ 78 µM)
- MIC ([4]; NO.162, S.marcescens No. 16-2 (β-Lactamase-producing strain), Mueller Hinton agar, inoculum 10⁶ CFU/ml, 37°C, 16 hours): 1.56 µg/mL (≈ 2.44 µM)
- MIC ([5]; NEK39, E.cloacae Nek 39 (β-Lactamase-producing strain), Mueller Hinton agar, inoculum 10⁶ CFU/ml, 37°C, 16 hours): 0.2 µg/mL (≈ 0.312 µM)
- MIC ([6]; A.calcoaceticus No. 4, Mueller Hinton agar, inoculum 10⁶ CFU/ml, 37°C, 16 hours): 0.2 µg/mL (≈ 0.312 µM)
- MIC ([7]; M.morganii GN5407 (β-Lactamase-producing strain), Mueller Hinton agar, inoculum 10⁶ CFU/ml, 37°C, 16 hours): 0.05 µg/mL (≈ 0.078 µM)
- MIC ([8]; AK109, Ps.aeruginosa AK 109, Mueller Hinton agar, inoculum 10⁶ CFU/ml, 37°C, 16 hours): 0.78 µg/mL (≈ 1.22 µM)
- MIC ([9]; C.freundii GN346/16, Mueller Hinton agar, inoculum 10⁶ CFU/ml, 37°C, 16 hours): 0.78 µg/mL (≈ 1.22 µM)
- MIC ([10]; K.oxytoca GN10650 (β-Lactamase-producing strain), Mueller Hinton agar, inoculum 10⁶ CFU/ml, 37°C, 16 hours): 0.2 µg/mL (≈ 0.312 µM)
- MIC ([11]; S.aureus BB5703, Mueller Hinton agar, inoculum 10⁶ CFU/ml, 37°C, 16 hours): 12.5 µg/mL (≈ 19.5 µM)
- MIC ([12]; E.coli GN5482 (β-Lactamase-producing strain), Mueller Hinton agar, inoculum 10⁶ CFU/ml, 37°C, 16 hours): 0.78 µg/mL (≈ 1.22 µM)
- MIC ([13]; HX19, P.vulgaris HX-19, Mueller Hinton agar, inoculum 10⁶ CFU/ml, 37°C, 16 hours): 0.025 µg/mL (≈ 0.039 µM)
- MIC ([14]; S.aureus JS1 (β-Lactamase-producing strain), Mueller Hinton agar, inoculum 10⁶ CFU/ml, 37°C, 16 hours): 50 µg/mL (≈ 78 µM)
- MIC ([15]; M.luteus ATCC9341, Mueller Hinton agar, inoculum 10⁶ CFU/ml, 37°C, 16 hours): 0.78 µg/mL (≈ 1.22 µM)
- MIC [16]: 0.0125 µg/mL (≈ 0.0195 µM)
- MIC ([17]; S.epidermidis IAM12012, Mueller Hinton agar, inoculum 10⁶ CFU/ml, 37°C, 16 hours): 3.12 µg/mL (≈ 4.87 µM)
- MIC ([18]; IAM1184, S.marcescens IAM 1184, Mueller Hinton agar, inoculum 10⁶ CFU/ml, 37°C, 16 hours): 0.025 µg/mL (≈ 0.039 µM)
- MIC [19]: 100 µg/mL (≈ 156 µM)
- MIC ([20]; S.aureus 209P NIHJ-JC1, Mueller Hinton agar, inoculum 10⁶ CFU/ml, 37°C, 16 hours): 6.25 µg/mL (≈ 9.76 µM)
- MIC [21]: 0.0125 µg/mL (≈ 0.0195 µM)
- MIC ([22]; Enterobacter cloacae, E.cloacae 963, Mueller Hinton agar, inoculum 10⁶ CFU/ml, 37°C, 16 hours): 0.025 µg/mL (≈ 0.039 µM)
- MIC ([23]; PCI602, K.pneumoniae PCI-602, Mueller Hinton agar, inoculum 10⁶ CFU/ml, 37°C, 16 hours): < 0.006 µg/mL
- MIC [24]: 0.1 µg/mL (≈ 0.156 µM)
- MIC ([25]; NIHJJC2, E.coli NIHJ JC2, Mueller Hinton agar, inoculum 10⁶ CFU/ml, 37°C, 16 hours): 0.1 µg/mL (≈ 0.156 µM)
- MIC ([26]; Burkholderia cepacia, Ps.cepacia 23, Mueller Hinton agar, inoculum 10⁶ CFU/ml, 37°C, 16 hours): 0.2 µg/mL (≈ 0.312 µM)
- MIC ([27]; GN12873, Ps.maltophilia GN 12873 (β-Lactamase-producing strain), Mueller Hinton agar, inoculum 10⁶ CFU/ml, 37°C, 16 hours): > 100 µg/mL
